For data set [1], the system named is isolated duodenum of the rabbit. Put plainly: spasmolytic activity overall. Type of data set: cell-based. The note with it: isolated duodenum of rabbits. The text has this: (§1) Ges. Physiol., 102, 123, (1904) with respect to the spasms of the isolated duodenum of rabbits caused either by acetylchlorine for the spasmolytic nemotropes or by barium chloride for the spasmolytic musculotropes.

The test system of data set [2] is mouse. The experiment in a line: traction test, mouse. Type of data set: in vivo, CD1 (Charles RIVER) mice. The note with it: po, orally, read-out: Traction AD 50. The text has this:
(§2) The neuroloptic effects of the compounds according to the invention have been shown with respect to the CD rat (Charles RIVER) taken orally in the catalepsy test according to S. COURVOISIER, R. DUCROT, and L. JULOU, in Psychotropic Drugs, S. GARATTINI and V. GHETTI, Edit.--ELSEVIER Publ. Co., AMSTERDAM, LONDON, NEW YORK, PRINCETON, 1957 P. 373 and also in the traction test of CD1 (Charles RIVER) mice taken orally S. COURVOISIER, Quart. Rev. Psychiat. Neurol. 17, 25 (1956), on the one hand and also in the spontaneous motility test.

Another data set relates to mice. The experiment in a line: analgesic activity, painful abdominal torsions test with phenylbenzoquinone. Type of data set: in vivo, CD 1 (Charles RIVER) mice. The note with it: for ED50: Mus musculus, po, mice, orally, read-out: Phenylbenzoquinone test on mice AD 50. The text has this:
The analgesic properties of the products according to the invention have been shown with CD 1 (Charles RIVER) mice in the painful abdominal torsions test with phenylbenzoquinone according to the technique of E. Siegmund, R. Cadmus and Go.Lu--Proc. Soc. Exp. Biol. Med., 95, 729, (1957).

For data set [3], the system named is isolated duodenum of the rabbit (barium chloride). Put plainly: spasmolytic effect on isolated duodenum, barium chloride spasm. Type of data set: cell-based. The note with it: Oryctolagus cuniculus, read-out: Spasmolytic effects EC 50 with respect to barium chloride.
Description: as §1

In data set [4] the test system is isolated duodenum of the rabbit (acetylcholine). Put plainly: spasmolytic effect on isolated duodenum, acetylcholine spasm. Type of data set: cell-based. The note with it: Oryctolagus cuniculus, read-out: Spasmolytic effects EC 50 with respect to acetylcholine.
Description: as §1

For a further data set, the system named is rat. The experiment in a line: catalepsy test, rat. Type of data set: in vivo, CD rat (Charles RIVER). The note with it: po, orally, read-out: Catalepsy AD 50.
Description: as §2

The test system of a further data set is serotonine. Put plainly: antiserotonine properties on the whole (all four tests). The note with it: comparison within the series. More on the design: species or system rat, mice, guinea pig. From the text: (§3) The anti-serotonine activities of the compounds according to the invention have been shown by oral administration to the CD (Charles RIVER) rats using the technique of the serotonine plantar oedema (W. Theobald and R. Domenjoz--Arzneimittel Forsch, 8, 18, 1958 and with the CD 1 (Charles RIVER) mice using the technique known as "head twitch" according to S. J. Corne, R. W. Pickering and B. T. Warner, Brit. J. Pharmacol., 20, 106, (1963). The anti-serotonine activity has also been determined on the one hand on the tricoloured guinea-pig, given intravenously, according to a method derived from H. Konzet and R. Rossler, Arch. exp. Pathol, Pharmakol., 195, 71, (1940) and on the other hand in vitro with respect to the serotonine spasm of the isolated uterus of the rat according to the technique of A. Fanchamps, W. Doepfener, H. Weidman and A. Cerletti, Schw. Med. Worsch, 90, 1940, (1960).

Data set [5] can be described thus: acute toxicity, LD 50, CD 1 mice. The note with it: mouse, in vivo. Type of data set: in vivo. From the text: The acute toxicities of the compounds according to the invention have been determined on CD 1 (Charles RIVER) mice by intravenous and oral methods. The LD 50 of each compound has been calculated by the cumulative method of J. J. Reed and H. Muench, (Amer. J. Hyg., 1938, 27, 493).

For data set [6], the system named is serotonine plantar oedema. Put plainly: anti-serotonine activity, serotonine plantar oedema. The note with it: po; rat, orally; read-out: Serotonine plantar oedema AD 50. Type of data set: in vivo, CD (Charles RIVER) rats.
Description: as §3

Another data set deals with serotonine bronchospasms. Put plainly: anti-serotonine activity, serotonine bronchospasms. The note with it: Cavia porcellus, iv; guinea pig, intravenously; read-out: Serotonine bronchospasms ED 50. Type of data set: in vivo, tricoloured guinea-pig.
Description: as §3

Another data set in a line: solubility. Type of data set: physicochemical.
The test system of a further data set is dogs. The experiment in a line: anti-emetic activity, apomorphine vomiting test on dogs. Type of data set: in vivo. The note with it: dogs; for ED50: Canis lupus familiaris, po, orally, apomorphine, read-out: Anti-emetic activity on dogs ED 50. From the text: The anti-emetic properties of the compounds according to the invention have been shown by oral administration of apomorphine to dogs in the vomiting test according to G. Chen and C. J. Ensor, Pharmacol. exp. Therap., 98, 24 (1950).

The test system of data set [7] is mouse. The experiment in a line: spontaneous motility test (hypomotility), mouse. Type of data set: in vivo, mice. The note with it: po, 1 h, orally, 60 minutes before measuring, 50% reduction of mean motility, first 5 minutes, read-out: Hypomotility ED 50.
Description: as §2
This latter technique comprises keeping an account of the displacements of the mice by means of a floor of metal strips which enables the spontaneous activity of the animals to be recorded during the first 5 minutes subsequent to their being introduced into the measuring chamber. The products are dispensed 60 minutes before measuring is effected and 10 mice are used per dose. The results are expressed in ED 50 which represents the dose of substance capable of reducing the mean motility of the treated animals by 50% relative to that of the sample group which has only received the dispensing carrier.

In a further data set the test system is head twitch. Put plainly: anti-serotonine activity, head twitch. Type of data set: in vivo, CD 1 (Charles RIVER) mice. The note with it: Mus musculus, po; mice, orally; read-out: "Head-twitch" AD 50.
Description: as §3

Setting [8] is: intravenous, read-out: Acute toxicity for mice LD 50, intravenous.
Where [9] appears, read: oral, read-out: Acute toxicity for mice LD 50, orally.

≈ marks a conversion by molar mass, not a printed value. Where two headings read alike, the source gives them in different places.

As for `COCCCNc1nc(Cl)c(SC)c(N2CCN(C)CC2)n1` [Example 5, 3'-Methoxy-2-propylamino-4-N-methylpiperazino-6-chloro-5-methylthio-pyrimidine], in [1], the “spasmolytic activity type / ranking” value is reported as “most effective”. In addition, the ED50 in the data set with mouse [2] was 30 mg/kg; in the data set on mice it was 35 mg/kg; in the data set with rat, 175 mg/kg; in data set [6], 90 mg/kg. Further, in the data set with mice (comparison within the series), the “analgesic activity ranking” value is listed as “the most active”. For the same compound, the figures for the EC50 in [3] and in [4] were 1.3 µg/mL (≈ 3.76 µM) and more than 5 µg/mL, respectively. The “antiserotonine properties ranking” value in the data set with serotonine is on record as “the greatest antiserotonine properties on the whole”. Besides, the figures for the LD50 in [5] (setting [8]) and in data set [5] (setting [9]) were 56 mg/kg and approximately 200 mg/kg, respectively.

With `CCCCCNc1nc(Cl)c(SC)c(N2CCN(C)CC2)n1` [Example 24, 2-n.pentylamino-4-N-methylpiperazino-6-chloro-5-methylthiopyrimidine], the ED50 came out at 0.05 mg/kg in the data set on serotonine bronchospasms; 210 mg/kg in the data set with mouse [2]; 100 mg/kg in the data set on mice; 1.9 mg/kg in the data set on dogs; 80 mg/kg in the data set with mouse [7]; 400 mg/kg with rat. In addition, the ED50 in the data set with head twitch is 25 mg/kg; in data set [6], more than 300 mg/kg. Besides, the “spasmolytic activity type / ranking” value in data set [1] is listed as “most effective”. Further, in “solubility”, the “solubility in dilute hydrochloric acid” value is “soluble”. In addition, in “solubility”, the “solubility in ethanol (alcohol)” value is on record as “very soluble”. The solubility in water result in the data set “solubility” is given as “insoluble”. Also, the EC50 turned out to be 0.12 µg/mL (≈ 0.349 µM) in data set [3] and 0.5 µg/mL (≈ 1.45 µM) in [4]. Further, the “antiserotonine properties ranking” value in the data set with serotonine is reported as “the greatest antiserotonine properties on the whole”. For the same compound, the LD50 is 87 mg/kg in [5] (setting [8]) and approximately 600 mg/kg in data set [5] (setting [9]).

As for `CCCCCCNc1nc(Cl)c(SC)c(N2CCN(C)CC2)n1` [Example 25, 2-n.hexylamino-4-N-methylpiperazino-6-chloro-5-methylthiopyrimidine], the ED50 in the data set on serotonine bronchospasms is 0.18 mg/kg; in the data set on mouse [2] it was more than 300 mg/kg; in the data set with mice, 85 mg/kg; in the data set on dogs, 5 mg/kg; in the data set on mouse [7], 70 mg/kg; with rat, more than 300 mg/kg. The ED50 in the data set on head twitch was 55 mg/kg; in [6], approximately 300 mg/kg. In data set [1], the “spasmolytic activity type / ranking” value is on record as “most effective”. Moreover, in “solubility”, the “solubility in dilute hydrochloric acid” value was “soluble”. Moreover, the “solubility in ethanol (alcohol)” value in the data set “solubility” is on record as “very soluble”. Moreover, in the data set “solubility” (solvents), the solubility in solvents entry is on record as “very soluble”. In the data set “solubility”, the solubility in water result is “insoluble”. Also, the EC50 in data set [3] is 0.2 µg/mL (≈ 0.559 µM); in data set [4] it was 1 µg/mL (≈ 2.79 µM). Moreover, the LD50 in [5] (setting [8]) came to 70 mg/kg.

Consider `CCCNc1nc(Cl)c(SC)c(N2CCN(C)CC2)n1` [Example 30, 2-n.propylamino-4-N-methylpiperazino-6-chloro-5-methylthiopyrimidine], for which the ED50 in the data set on serotonine bronchospasms was 0.05 mg/kg; in the data set with mice, more than 400 mg/kg; with dogs, 0.16 mg/kg; with mouse [7], 25 mg/kg; in the data set on rat it was more than 300 mg/kg; in the data set with head twitch it was 10 mg/kg. Further, the “spasmolytic activity type / ranking” value in [1] was “most effective”. In the data set “solubility”, the “solubility in dilute hydrochloric acid” value is “soluble”. In addition, the “solubility in ethanol (alcohol)” value in “solubility” is given as “soluble”. In addition, in the data set “solubility”, the solubility in water entry is recorded as “insoluble”. In the data set with dogs (comparison within the series), the “anti-vomiting ranking” value is listed as “the most strong anti-vomiting agents”. Further, the EC50 in [3] turned out to be 0.2 µg/mL (≈ 0.633 µM); in data set [4], 9 µg/mL (≈ 28.5 µM). Moreover, the “antiserotonine properties ranking” value in the data set with serotonine is “the greatest antiserotonine properties on the whole”. Also, the results for the LD50 in [5] (setting [8]) and in data set [5] (setting [9]) were 60 mg/kg and approximately 200 mg/kg, respectively.

With `CCCCNc1nc(Cl)c(SC)c(N2CCN(C)CC2)n1` [Example 31, 2-n.butylamino-4-N-methylpiperazino-6-chloro-5-methylthiopyrimidine], the ED50 in the data set with serotonine bronchospasms was 0.1 mg/kg; with mice, 100 mg/kg; in the data set on dogs, approximately 3 mg/kg; in the data set on mouse [7] it was 20 mg/kg; with head twitch, 13 mg/kg; in data set [6], more than 100 mg/kg. The “solubility in dilute hydrochloric acid” value in the data set “solubility” was “soluble”. Besides, in the data set “solubility”, the “solubility in ethanol (alcohol)” value is reported as “soluble”. In addition, in the data set “solubility”, the solubility in water result is “insoluble”. Further, the EC50 in data set [3] was 0.3 µg/mL (≈ 0.909 µM); in [4], 1.2 µg/mL (≈ 3.64 µM). The “antiserotonine properties ranking” value with serotonine is given as “the greatest antiserotonine properties on the whole”. Besides, the LD50 in [5] (setting [8]) is 98 mg/kg; in data set [5] (setting [9]), approximately 225 mg/kg.

Values taken from patent publication US4166852A, “Piperazino-pyrimidines and their use as spasmolytic agents” (priority 1974, dated 1979).
